Key:
Format in all cases: in vivo
[1] = system: HB-EGF deficient type TG mouse; experiment: Marble-burying behavior test (obsessive-compulsive disorder related anxiety-like behavior); conditions: 1 mg/kg i.p. once a day for 7 days; for number of the marbles that were buried: 25 marbles, 30 minutes, saline group: large, FIG. 17
Description: The marble-burying behavior test was carried out in accordance with the following processes. First, in a cage in which bedding was carpeted in around 5 cm depth, 25 blue-colored marbles with 17 mm were equally arranged, and the marble-burying behavior of each mouse were measured for 30 minutes. After a lapse of 30 minutes, when observed from straight above, the marbles those were buried two-thirds or more thereof with bedding were counted. Further, the acting amount of burying marbles was determined by SCANET. In the marble-burying behavior test, the more the number of marbles that buried after the test, the more the anxiety-like behavior enhanced.
(§1) As the therapeutic agent, three drugs of atomoxetine (1 mg/kg), nefiracetam (1 mg/kg), and SA4503 (1 mg/kg) were used independently to administer into the abdominal cavity once a day for 7 days in a row. As a control of the therapeutic agent, saline was administered into the abdominal cavity once a day for 7 days in a row.

[2] = system: HB-EGF deficient type TG mouse; experiment: Nest-building test (social behavior, interest and consideration for the surrounding environment); conditions: 1 mg/kg i.p. once a day for 7 days; for state of the nest: collecting the cotton in one place and making the nest: FIG. 16(a); for amount of the cotton that was not used for the nest-building: Nestlet 2.5 g provided, FIG. 16(c); for rating on 5-point scale for the state of the nest: score criteria 1-5 (5 = almost perfect nest), FIG. 16(b)
Description: The nest-building test was carried out in accordance with the following processes. First, from one hour before the darkness period (19:00) of the light and darkness cycle (light period 8:00 to 20:00/darkness period 20:00 to 8:00), each mouse was reared alone in a new cage, and provided with Nestlet (2.5 g) that is a material for the nest-building. During the darkness period 20:00 to 8:00, each mouse acted freely, in the next morning the nest shape that was made by each mouse was scored on 5-point scale, and the unused Nestlet amount was measured. The score was determined by the following criteria.
1: 90% of the Nestlet was unused.
2: the Nestlet was slightly used, however, 50 to 90% of the Nestlet was left unused.
3: 50 to 90% of the Nestlet was torn off finely, and the shape was not maintained as the nest.
5: 90% or more of the Nestlet was torn off finely, and used as a material of the nest, the nest was dug into a crater-like shape, and the (almost) perfect nest that buries the whole body of the mouse when viewed from the side was confirmed.
as §1

[3] = system: HB-EGF deficient type TG mouse; experiment: Cylindrical platform test (impulsivity), ratio of mice remained on the platform; conditions: for impulsivity (conclusion in words): HB-EGF deficient type TG mouse, 1 mg/kg i.p. once a day for 7 days; for ratio of the mice that were remained on the platform: HB-EGF deficient type mouse, 1 mg/kg into the abdominal cavity once a day for 7 days, column height 20 cm, diameter 10 cm, untreated TG only 20%, non-deficient 80% or more
Description: Further, the behavior of each mouse of the descending from the top of the platform to the floor was observed by classifying into the positive performing (=jumped down from the head) and the negative performing (=fall off from the tail).
as §1
In the mouse in which HB-EGF is not deficient, 80% or more of the mice were remained on the platform. On the other hand, in the HB-EGF deficient type mouse, only 20% of the mice were remained on the platform. However, in the case of administering atomoxetine to the HB-EGF deficient type mouse, 50% or more of the mice were remained on the platform. Further, in the case of administering nefiracetam to the HB-EGF deficient type mouse, 70% or more of the mice were remained on the platform.

Compound: COc1ccc(CCN2CCN(CCCc3ccccc3)CC2)cc1OC [SA4503]
- number of the marbles that were buried [1]: the same level as that of the HB-EGF deficient type TG mouse into which saline had been administered
- social behavior, interest and consideration for the surrounding environment (conclusion in words) [2]: improved the social behavior, and the interest and consideration for the surrounding environment
- state of the nest: collecting the cotton in one place and making the nest [2]: could collect the cotton in one place and could make the nest
- amount of the cotton that was not used for the nest-building [2]: around 0.1 g
- rating on 5-point scale for the state of the nest [2]: 5

Compound: CNCC[C@@H](Oc1ccccc1C)c1ccccc1 [atomoxetine]
- number of the marbles that were buried [1]: the same level as that of the HB-EGF deficient type TG mouse into which saline had been administered
- impulsivity (conclusion in words) [3]: the impulsivity was suppressed
- ratio of the mice that were remained on the platform [3]: ≥ 50%
- state of the nest: collecting the cotton in one place and making the nest [2]: could not collect the cotton in one place and could not make the nest
- rating on 5-point scale for the state of the nest [2]: ≤ 3

Compound: Cc1cccc(C)c1NC(=O)CN1CCCC1=O [nefiracetam]
- anxiety-like behavior related to obsessive-compulsive disorder (conclusion in words) [1]: the anxiety-like behavior related to obsessive-compulsive disorder was decreased
- number of the marbles that were buried [1]: small
- impulsivity (conclusion in words) [3]: the impulsivity was suppressed
- ratio of the mice that were remained on the platform [3]: ≥ 70%
- social behavior, interest and consideration for the surrounding environment (conclusion in words) [2]: improved the social behavior, and the interest and consideration for the surrounding environment
- state of the nest: collecting the cotton in one place and making the nest [2]: could collect the cotton in one place and could make the nest
- amount of the cotton that was not used for the nest-building [2]: around 0.1 g
- rating on 5-point scale for the state of the nest [2]: 5
